Like-named read-outs stand apart in the source and are kept apart here.
Experiments:
[1] = test system: Doxorubicin resistant SaOS2 cells; test: Cancer cell viability (MTT) in the presence or absence of doxorubicin; format: cell-based, human; settings: compound 50 ug/mL, 3 days
TNFα = test: Measurement of LPS Induced-TNFα in THP-1 Cells; format: cell-based, human; settings: Homo sapiens
Lipid peroxidation = Lipid peroxidation inhibition (method of Ohkawa); format: biochemical; settings: for Lipid Peroxidation Inhibition, % Inhibition: 10 uM
[2] = test system: bFGF-induced angiogenesis in the CAM model; test: bFGF (FGF2)-stimulated CAM model; format: in vivo, chicken; settings: bFGF/FGF2 1 ug, 30 ug injected; for inhibition in vivo at 0.03 mg: Gallus gallus, read-out: % Inhibition ± SEM
Experimental: In vivo neovascularization was examined by the method previously described by Auerbach et al. (J. Dev. Biol. 41:391-394 (1974)). Ten-day old chicken embryos were purchased from Spafas, Inc. (Preston, Conn.) and were incubated at 37° C. with 55% relative humidity. In the dark, with the aid of a candling lamp, a small hole was punctured in the shell concealing the air sac with a hypodermic needle. A second hole was punctured in the shell on the broadside of the egg directly over an […] portion of the embryonic membrane, as observed during candling. An artificial air sac was created beneath the second hole by applying gentle vacuum to the first hole using a small rubber squeeze bulb. The vacuum caused the chorioallantoic membrane (CAM) to separate from the shell.
For inducing angiogenesis, sterile filter disks were saturated with bFGF (1 μg/ml) (Life Technologies, Gaithersburg, Md.) or other pro-angiogenesis factors and control disks were saturated with PBS without Calcium and Magnesium. Control disks were saturated with PBS without Calcium and Magnesium.
After 24-48 hr, 10-25 ul of test agent was injected intravenously or added topically into the CAM membrane. Eight-Ten eggs/treatment group were used.
The number of vessel branch points contained in a circular region equal to the area of a filter disk was counted for each section. Percent inhibition data are expressed as the quotient of the experimental value minus the negative control value divided by the difference between the positive control value and the negative control value. One image was counted in each CAM preparation, and findings from eight CAM preparations were analyzed for each treatment condition. In addition, each experiment was performed three times. The resulting angiogenesis index is the mean ±SEM (Standard Error of Measurement) of new branch points in each set of treatment. Statistical analysis of blood vessel branching patterns are performed by 1-way analysis of variance (ANOVA) comparing experimental with corresponding control groups. Statistical significance differences are assessed at P value of <0.05.
The CAM model protocol was modified to include stimulus with bFGF. The effect of injected OT 551 was assayed.
TP-H was applied to the CAM model study to determine its respective anti-angiogenesis effects according to the materials and methods provided in Example 1. Basic Fibroblast Growth Factor (bFGF) was used to induce angiogenesis in the CAM model.
Compounds were introduced via injection to the CAM model study to determine its respective anti-angiogenesis effects according to the materials and methods provided in Example 1. bFGF was used to induce angiogenesis in the CAM model.

Angiogenesis in CAM = test: Neovascularization on the CAM (Inhibition of Angiogenesis in CAM); format: in vivo, chicken; settings: for Inhibition of Angiogenesis in CAM, % Inhibition: 300 ug
Experimental: In vivo neovascularization was examined by the method previously described by Auerbach et al. (J. Dev. Biol. 41:391-394 (1974)). Ten-day old chicken embryos were purchased from Spafas, Inc. (Preston, Conn.) and were incubated at 37° C. with 55% relative humidity. In the dark, with the aid of a candling lamp, a small hole was punctured in the shell concealing the air sac with a hypodermic needle. A second hole was punctured in the shell on the broadside of the egg directly over an […] portion of the embryonic membrane, as observed during candling. An artificial air sac was created beneath the second hole by applying gentle vacuum to the first hole using a small rubber squeeze bulb. The vacuum caused the chorioallantoic membrane (CAM) to separate from the shell. A window, approximately 1.0 cm^2, was cut in the shell over the dropped CAM with the use of a small crafts grinding wheel (Dremel, Division of Emerson Electric Company Racine, Wis.). The window allowed direct access to the underlying CAM. A pro-angiogenic agent was added to induce new blood vessel branches on the CAM of 10-day old embryos. […] Louis, Mo.) in a solution (95% ethanol and water). The disks were subsequently air dried under sterile conditions. The disks were then suspended in PBS (Phosphate Buffered Saline) and placed on growing CAMs. […] For inducing angiogenesis, sterile filter disks were saturated with bFGF (1 μg/ml) (Life Technologies, Gaithersburg, Md.) or other pro-angiogenesis factors and control disks were saturated with PBS without Calcium and Magnesium. Control disks were saturated with PBS without Calcium and Magnesium. Using sterile forceps one filter/CAM was placed from the window. The window was sealed with Highland brand transparent tape. After 24-48 hr, 10-25 ul of test agent was injected intravenously or added topically into the CAM membrane. Eight-Ten eggs/treatment group were used. CAM tissue directly beneath filter disk was harvested from embryos treated 48 hours prior with compound or control. Tissues were washed three times with PBS. Sections were placed in a 35-mm petri dish (Nalge Nunc, Rochester, N.Y.) and examined under a SV6 stereomicroscope (Karl Zeiss, Thornwood, N.Y.) at 50× magnification. […] Digital images of CAM sections from Petri dish were collected using a 3-CCD color video camera system (Toshiba America, New York, N.Y.). These images were analyzed using Image-Pro Plus software (Media Cybernetics, Silver Spring, Md.). The number of branch points in blood vessels within the circular region superimposed to the area of a filter disk was counted for each section. […] Tissues were washed three times with PBS. Sections were placed in a 35-mm Petri dish (Nalge Nunc; Rochester, N.Y.) and were examined under a SV6 stereomicroscope (Karl Zeiss; Thornwood, N.Y.) at 50× magnification. Digital images of CAM sections adjacent to filters were collected using a 3-CCD color video camera system (Toshiba America; New York, N.Y.) and analyzed with the Image-Pro Plus software (Media Cybernetics; Silver Spring, Md.). The number of vessel branch points contained in a circular region equal to the area of a filter disk was counted for each section. Percent inhibition data are expressed as the quotient of the experimental value minus the negative control value divided by the difference between the positive control value and the negative control value. One image was counted in each CAM preparation, and findings from eight CAM preparations were analyzed for each treatment condition. In addition, each experiment was performed three times. The resulting angiogenesis index is the mean ±SEM (Standard Error of Measurement) of new branch points in each set of treatment. Statistical analysis of blood vessel branching patterns are performed by 1-way analysis of variance (ANOVA) comparing experimental with corresponding control groups.

[3] = test system: Human whole blood clot formation
Experimental: TEG: Human whole blood (±drugs) was added to the cylindrical cuvette (“cup”). […] The cup oscillates 4°45′ ( 1/12 radian) in either direction every 4.5 seconds, with a 1-second mid-cycle stationary period, resulting in a frequency of 0.1 Hz and a maximal shear rate of 0.1 per second. The pin was suspended by a torsion wire that acts as a torque transducer. […] The torque experienced by the pin (relative to the oscillation of the cup) was plotted as a function of time (Forsythe, S. A. M. S. K. M. S. (2000): “Comparative In Vitro Efficacy of Different Platelet Glycoprotein IIb/IIIa Antagonists on Platelet-Mediated Clot Strength Induced by Tissue Factor With Use of Thromboelastography.” Arteriosclerosis, Thrombosis, and Vascular Biology 20: 1162).
(Data represent mean ±SD, n=6 (blood form normal healthy volunteers), *P<0.01 as compared to control)

[4] = THP-1, compound 10 uM, 5 ng/mL LPS, read-out: Mean Percent Inhibition of TNF-alpha using 5 ng/mL LPS
[5] = TEG, human whole blood, Bevacizumab 1 ng/cup, Comp. 4 0 uM, *P<0.01 vs control

IC50 (TNFα; THP-1, read-out: TNFalpha IC50)	Compound	Mean OD (×10^−3), MTT viability ([1]; Dox. 10^−6 M (+))	Mean OD (×10^−3), MTT viability ([1]; absence of Dox. (−))	inhibition at 10 µM (TNFα; [4])	Lipid Peroxidation Inhibition, % Inhibition (Lipid peroxidation)	inhibition in vivo at 0.03 mg [2]	Branch pts ± SEM [2]	further results
16.8 µM	COC1CC(C)(C)N(O)C(C)(C)C1.Cl [Compound 1, 1-hydroxy-4-methoxy-2,2,6,6-tetramethylpiperidine hydrogen chloride]	246.50 ×10^−3	524.75 ×10^−3	50 ± 9%	90.8%	89.9 ± 18%	74 ± 8.6	% Lipid Peroxidation inhibition (at 1 uM) (Lipid peroxidation): 74.1%
17 µM	CC(=O)NC1CC(C)(C)N(O)C(C)(C)C1.Cl [Compound 2, 1-hydroxy-4-acetamido-2,2,6,6-tetramethylpiperidine]	249.25 ×10^−3	496.33 ×10^−3	64 ± 5%	81.0%	76.4 ± 9.9%	84.7 ± 11.1	melting point: 180.5 °C (dec.)
11.6 µM	CC1(C)CC(N2CCOCC2)CC(C)(C)N1O.Cl [Compound 3, 4-(2,2,6,6-tetramethylpiperidin-1-hydroxy-4-yl)morpholine hydrogen chloride]	289.50 ×10^−3	640.25 ×10^−3	60 ± 2%	77.8%	54.7 ± 7.9%	95.1 ± 5.6	
	CC1(C)CC(=O)CC(C)(C)N1O [Compound 5, 1-Hydroxy-2,2,6,6-tetramethyl-piperidin-4-one]	245.50 ×10^−3	556.50 ×10^−3		86.3%	26.5 ± 7.9%	86.1 ± 9.8	inhibition at 10 µM (TNFα; THP-1, read-out: Mean Percent Inhibition of TNF-alpha using 5 ng/mL LPS): 66 ± 7%; IC50 (TNFα; THP-1, read-out: TNFalpha IC50 (uM)): 22.2 µM; % Lipid Peroxidation inhibition (at 1 uM) (Lipid peroxidation): 71.0%
29.4 µM	CC1C(O)C(C)C(C)(C)N(O)C1(C)C.Cl (stereo not shown) [Compound 6, 2,2,3,5,6,6-Hexamethyl-piperidine-1,4-diol hydrogen chloride salt]	185.25 ×10^−3	367.00 ×10^−3	54 ± 6%	89.0%	40.4 ± 9.3%	78.6 ± 7.3	melting point: 191.5 °C (dec.); % Lipid Peroxidation inhibition (at 1 uM) (Lipid peroxidation): 70.5%
44.9 µM	CC1(C)CC(O)C(C)(C)N1O (stereo not shown) [Compound 7, 2,2,5,5-Tetramethyl-pyrrolidine-1,3-diol]	241.25 ×10^−3	540.25 ×10^−3	69 ± 2%	82.9%	124 ± 8.4%	40.8 ± 9.7	
≥ 100 µM	CC1(C)CC(NS(C)(=O)=O)CC(C)(C)N1O [Compound 10, 1-hydroxy-4-methanesulfonamido-2,2,6,6-tetramethylpiperidine]	250.00 ×10^−3	456.00 ×10^−3		85.8%	78.2 ± 9.9%	60.4 ± 5.0	
20.7 µM	CC1(C)CC(NC(=O)N2CCOCC2)CC(C)(C)N1O.Cl [Compound 11, N-(2,2,6,6-tetramethylpiperidin-1-hydroxyl-4-yl)morpholine-4-carboxamide hydrogen chloride]	267.25 ×10^−3	470.25 ×10^−3	24 ± 5%	82.7%	71 ± 8.8%	64.0 ± 5.1	melting point: 158.1 °C (dec.)
16.4 µM	CC1(C)CC(Oc2nsnc2Cl)CC(C)(C)N1O [Compound 13, 4-(4-chloro-1,2,5-thiadiazol-3-yloxyl)-1-hydroxyl-2,2,6,6-tetramethylpiperidine hydrogen chloride]			36%				inhibition in vivo at 0.03 mg (Angiogenesis in CAM; Gallus gallus, 30 ug): 93.4%
	O=C1O[C@H]([C@@H](O)CO)C(O)=C1O [Vitamin C, reference compound]							Inhibition of Angiogenesis in CAM, % Inhibition (Angiogenesis in CAM): 15 ± 7%
	Bevacizumab: a monoclonal antibody against vascular endothelial growth factor used to treat cancer by inhibiting angiogenesis [reference compound]							MA in comparison to native blood [3]: approximately six times larger MA; initiation of clot formation in comparison to native blood [3]: approximately two to three fold faster; Clot Strength - MA [3, 5]: 33.8 ± 5.6* mm; Time to Clot Initiation R [3, 5]: 7.8 ± 1.1* min
	Vitamin E [reference compound]							Inhibition of Angiogenesis in CAM, % Inhibition (Angiogenesis in CAM): 22 ± 6%
